Results published in patent publication US20200206173A1, “A PERSONAL CARE COMPOSITION” (Conopco, Inc., d/b/a UNILEVER, priority 2017, published 2020).

Test system: IL-6 in THP-1 monocytes
Test: Anti-inflammation efficacy in THP-1 in vitro assay: IL-6 in supernatant by ELISA after LPS stimulation
Type: cell-based
Conditions: LPS 1 μg/mL, 24 hours, PMA-differentiated THP-1
Experimental: The following procedure was used to test the anti-inflammation efficacy of the various actives alone or in combination. • (i) 5×10^5 THP-1 monocytes were placed into 24-well plates, with 100 nM PMA in the culture media to differentiate the cell. • (ii) After 72 hours differentiation, treatments as follows were supplemented into fresh media and applied to the cells: • Example 1: Vehicle control with LPS (1 μg/mL) stimulation • Example 2,3: DHA at 100 or 20 μM alone with LPS (1 μg/mL) stimulation. • Example 4,5: Niacinamide at 10000 or 5000 μM alone with LPS (1 μg/mL) stimulation. • Example 6,7: Combinations of 100 μM DHA and either 10000 or 5000 μM of niacinamide. • Example 8: Combination of 20 μM DHA and 10000 μM of niacinamide. • (iii) After 24 hours incubation, the supernatants were collected. • (iv) Then IL-6 concentration was quantified in the supernatant by BD Elisa kit. • (v) IL-6 inhibition rate was calculated in comparison with vehicle control with LPS stimulation as a reference for each treatment.
The lower the percentage, the higher the anti-inflammatory potential. The CI value (combination index) of the various combinations is also less than 1 indicating synergism.
The data below is expressed in % IL-6 inhibition rate in Table-2 below. • (i) 5×10^5 THP-1 monocytes were placed into 24-well plates, with 100 nM PMA in the culture media to differentiate the cell. • (ii) After 72 hours differentiation, treatments as follows were supplemented into fresh media and applied to the cells: • Example 9: Vehicle control with LPS (1 μg/mL) stimulation • Example 10,11,12: DHA at 100, 50 or 25 μM alone with LPS (1 μg/mL) stimulation. • Example 13,14,15: Niacinamide at 5000, 2500 or 1250 μM alone with LPS (1 μg/mL) stimulation. • Example 16: Combinations of 100 μM DHA and 5000 μM of niacinamide. • Example 17: Combination of 50 μM DHA and 2500 μM of niacinamide. • Example 18: Combination of 25 μM DHA and 1250 μM of niacinamide. • (iii) After 24 hours incubation, the supernatants were collected. • (iv) Then IL-6 concentration was tested in the supernatant by BD Elisa Kit. • (v) IL-6 inhibition rate was calculated in comparison with vehicle control with LPS stimulation as reference, for each treatment.
Experiments were carried out at various concentrations of DHA and niacinamide at mole ratios outside the invention i.e., at 1:12.5. The data below is expressed in % IL-6 inhibition rate in Table-3 below: • (i) 5×10^5 THP-1 monocytes were placed into 24-well plates, with 100nM PMA in the culture media to differentiate the cell. • (ii) After 72 hours differentiation, treatments as follows were supplemented into fresh media and applied to the cells: • Example 20: Vehicle control with LPS (1 μg/mL) stimulation • Example 21,22,23: DHA at 100, 50 or 25 μM alone with LPS (1 μg/mL) stimulation. • Example 24,25,26: Niacinamide at […] alone with LPS (1 μg/mL) stimulation. • Example 27: Combinations of 100 μM DHA and 1250 μM of niacinamide. • Example 28: Combination of 50 μM DHA and 625 μM of niacinamide. • Example 29: Combination of 25 μM DHA and […] of niacinamide. • (iii) After 24 hours incubation the supernatants were collected. • (iv) Then IL-6 concentration was tested in the supernatant by BD Elisa Kit. • (v) IL-6 inhibition rate was calculated in comparison with vehicle control with LPS stimulation as reference, for each treatment.

Row | Structure (SMILES) | % of LPS (concentration of IL-6 as a % of that obtained for LPS) (20 μM of DHA alone) [%] | % of LPS (concentration of IL-6 as a % of that obtained for LPS) (25 μM of DHA alone) [%] | % of LPS (concentration of IL-6 as a % of that obtained for LPS) (50 μM of DHA alone) [%] | % of LPS (concentration of IL-6 as a % of that obtained for LPS) (100 μM of DHA alone) [%] | % of LPS (concentration of IL-6 as a % of that obtained for LPS) (100 μM of DHA alone, listed as 10) [%] | % of LPS (concentration of IL-6 as a % of that obtained for LPS) (100 μM of DHA alone, listed as 21) [%] | % of LPS (concentration of IL-6 as a % of that obtained for LPS) (317.5 μM of niacinamide alone) [%] | % of LPS (concentration of IL-6 as a % of that obtained for LPS) (625 μM of niacinamide alone) [%] | % of LPS (concentration of IL-6 as a % of that obtained for LPS) (1250 μM of niacinamide alone, listed as 15) [%] | % of LPS (concentration of IL-6 as a % of that obtained for LPS) (1250 μM of niacinamide alone, listed as 24) [%] | % of LPS (concentration of IL-6 as a % of that obtained for LPS) (2500 μM of niacinamide alone) [%] | % of LPS (concentration of IL-6 as a % of that obtained for LPS) (5000 μM of niacinamide alone, listed as 5) [%] | % of LPS (concentration of IL-6 as a % of that obtained for LPS) (5000 μM of niacinamide alone, listed as 13) [%] | % of LPS (concentration of IL-6 as a % of that obtained for LPS) (10000 μM of niacinamide alone) [%]
1 | CC/C=C\C/C=C\C/C=C\C/C=C\C/C=C\C/C=C\CCC(=O)O [Example 2, docosahexaenoic acid] | 58.5 | 65.5 | 38.7 | 14.7 | 8.3 | 8.3 | – | – | – | – | – | – | – | –
2 | NC(=O)c1cccnc1 [Example 4, niacinamide] | – | – | – | – | – | – | 84.2 | 77.6 | 64.5 | 35.4 | 50.8 | 33.4 | 26.5 | 5.7
